Data published in US8901167B2, “Product and process for inhibition of biofilm development” (National Jewish Health, priority 2004, dated 2014).
≈ marks a conversion by molar mass, not a printed value.

Experiments:
[1] = test system: P. aeruginosa strain PA01; assay: Antibiotic susceptibility of planktonic population (MIC), NCCLS assay; assay type: cell-based; settings: Pseudomonas aeruginosa
Procedure: (§1) As human neutrophils enhance biofilm development, the inventors questioned if biofilms formed in the presence of neutrophils had altered patterns of antibiotic resistance. Biofilms and planktonic P. aeruginosa grown in the presence or absence of neutrophils for 24 hours were tested for susceptibility to four clinically relevant classes of antibiotics. […] No significant changes in antibiotic susceptibilities was detected in planktonic P. aeruginosa in the presence of neutrophils. This selective modification of antibiotic resistance supports the conclusion that neutrophils mediate phenotypic changes in addition to greater biofilm thickness.

[2] = test system: P. aeruginosa strain PA01 biofilm; assay: Antibiotic susceptibility of biofilm population (MBEC), NCCLS assay; assay type: cell-based; settings: for Susceptibility of biofilms grown in the presence of neutrophils versus absence: biofilms grown 24 hours
Procedure: as §1

[3] = test system: P. aeruginosa PA01 biofilm; assay type: cell-based; settings: for Effect on neutrophil-induced enhancement of biofilm formation: CV staining, DNase I 90 Kunitz units/ml, gelsolin 200 nM, FIG. 3C
Procedure: A static biofilm assay was used with polypropylene tubes (9). PA01 was grown overnight under constant rotation to late stationary phase at 37° C. in LB. All biofilm studies were initiated with neutrophils (1×10^7 cells/ml) and PA01 (1×10^6 CFU/ml) in suspension, and cultures were incubated under stationary conditions at 37° C. P. aeruginosa adherent to the tube was considered to be a biofilm, while bacteria not adherent to the surface of the tube was considered to be “planktonic”. Viable P. aeruginosa biofilm and planktonic cells were quantified by sonicating the adherent bacteria in LB, followed by serial dilution and plating to determine CFUs on Pseudomonas Isolation Agar (Difco, Sparks, Md.). P. aeruginosa biofilm density was quantified by crystal violet (CV) staining (9). The contribution of background staining of neutrophil components, tubes and reagents were subtracted from depicted values. Neutrophils were lysed with 0.1% Tween 20 (BioRad, Hercules, Calif.) for 30 min. Neutrophil lysates relatively depleted of F-actin were prepared by precipitating the F-actin using the F-actin/G-actin In Vivo Biochem Kit (Cytoskeleton, Denver, Colo.). The total protein present in the whole cell lysate and the F-actin depleted lysate was determined by the Bradford Protein Assay (BioRad, Hercules, Calif.). Biofilm exopolysaccharide was determined by total carbohydrate assays as previously described (15).
Genomic DNA was isolated from neutrophils and P. aeruginosa using the DNeasy Tissue Kit (Qiagen, Valencia, Calif.) according to the manufacturer's protocol. Actin and DNA polymerization was performed as described previously (38). Effects of filament cleavage was tested by initially treating the samples with 90 Kunitz units/ml of DNase I (43) and/or 200 nM gelsolin (Sigma) (42). Granule proteins were isolated from homogenized human neutrophils by differential centrifugation in a discontinuous Percoll/sucrose gradient (34). Heavy and light granules were immediately suspended in RPMI media and added to P. aeruginosa.

actin-DNA filaments = assay: Fluorescence microscopy of actin-DNA filaments in neutrophil lysates and CF sputum; parameters: species or system human; settings: data not shown
Procedure: Samples of sputa from CF patients chronically infected with P. aeruginosa were frozen in liquid nitrogen and stored at −20° C. At the time of analysis, sputa were thawed and resuspended carefully in PBS (1:4 vol/vol ratio) containing 10^7 CFU/ml of P. aeruginosa labeled with the intracellular fluorescent conjugate (CFDA SE) as described in the actin-binding protocol. Samples were incubated for 4 hours at 37° C., then dried on Superfrost/Plus microscope slides (Fisher Scientific) and stained for 15 min with 10 μl of 0.6 μM Alexa Fluor 546 Phalloidin (Molecular Probes), 10 μl of 0.2 μM DAPI, dilactate (Molecular Probes), to visualize F-actin and DNA. Visualization of actin (546/576 nm), DNA (358/461 nm), and P. aeruginosa (492/517 nm) were performed sequentially on the same field, followed by an “overlay” view at all 3 wavelengths. Neutrophil lysates were also combined with P. aeruginosa labeled with CFDA SE for 4 hrs at 37° C., and staining of F-actin and DNA was conducted as described for CF sputa.

P. aeruginosa biofilm [4] = settings: literature refs 39, 43; cited from earlier work
P. aeruginosa biofilm [5] = assay: NUNC-TSP biofilm growth of P. aeruginosa suspended in mucin; assay type: cell-based
Source text: When P. aeruginosa was suspended in mucin rather then RPMI media, a similar effect was observed on NUNC-TSP biofilm growth. […] These aggregates of P. aeruginosa may represent the predominant structure of biofilms that are present in the CF airway, and the combination of neutrophils with mucin appears to enhance their formation.

[6] = PA01 + PMN, planktonic, grown with neutrophils 24 hours
[7] = PA01 planktonic, without neutrophils
[8] = PA01 + PMN, biofilm grown with neutrophils 24 hours
[9] = PA01 biofilm, without neutrophils

Compound: CC(C)(O/N=C(\C(=O)N[C@@H]1C(=O)N2C(C(=O)[O-])=C(C[n+]3ccccc3)CS[C@H]12)c1csc(N)n1)C(=O)O [Ceftazidime]
- MIC [1, 6]: 2 µg/mL
- MIC [1, 7]: 2 µg/mL (≈ 3.66 µM)
- MBEC [2, 8]: >1024 µg/mL
- MBEC [2, 9]: >1024 µg/mL
- Susceptibility of biofilms grown in the presence of neutrophils versus absence [2]: unchanged

Compound: gelsolin
- Effect on neutrophil-induced enhancement of biofilm formation [3]: significantly reduced the neutrophil-induced enhancement of the biofilm

Compound: CC[C@H]1OC(=O)[C@H](C)[C@@H](O[C@H]2C[C@@](C)(OC)[C@@H](O)[C@H](C)O2)[C@H](C)[C@@H](O[C@@H]2O[C@H](C)C[C@H](N(C)C)[C@H]2O)[C@](C)(O)C[C@@H](C)CN(C)[C@H](C)[C@@H](O)[C@]1(C)O [Azithromycin]
- MIC [1, 6]: 32 µg/mL
- MIC [1, 7]: 64 µg/mL (≈ 85.4 µM)
- MBEC [2, 8]: 1024 µg/mL
- MBEC [2, 9]: >1024 µg/mL
- Susceptibility of biofilms grown in the presence of neutrophils versus absence [2]: unchanged

Compound: DNase
- Effect on bacterial growth or neutrophil survival [3]: without significantly inhibiting bacterial growth or neutrophil survival
- Effect on neutrophil-induced enhancement of biofilm formation [3]: abolished much of the neutrophil-induced enhancement of biofilm formation
- Disruption of actin-DNA filaments (actin-DNA filaments): near complete disruption of the actin-DNA filaments
- Effect on P. aeruginosa biofilm formation (P. aeruginosa biofilm [4]): strongly inhibited biofilm formation

Compound: O=C(O)c1cn(C2CC2)c2cc(N3CCNCC3)c(F)cc2c1=O [Ciprofloxacin]
- MIC [1, 6]: 2 µg/mL
- MIC [1, 7]: 0.5 µg/mL (≈ 1.51 µM)
- MBEC [2, 8]: 128 µg/mL
- MBEC [2, 9]: 512 µg/mL
- Susceptibility of biofilms grown in the presence of neutrophils versus absence [2]: significantly greater susceptibility

Compound: NC[C@H]1O[C@H](O[C@H]2[C@H](O)[C@@H](O[C@H]3O[C@H](CO)[C@@H](O)[C@H](N)[C@H]3O)[C@H](N)C[C@@H]2N)[C@H](N)C[C@@H]1O [Tobramycin]
- MIC [1, 6]: 0.5 µg/mL
- MIC [1, 7]: 1 µg/mL (≈ 2.14 µM)
- MBEC [2, 8]: 256 µg/mL
- MBEC [2, 9]: >1024 µg/mL
- Susceptibility of biofilms grown in the presence of neutrophils versus absence [2]: significantly greater susceptibility

Compound: mucin
- Effect on biofilm growth (P. aeruginosa biofilm [5]; absence of neutrophils): increased biofilm growth
- Effect on biofilm growth (P. aeruginosa biofilm [5]; presence of neutrophils): no change
